# Test results: ChEMBL document CHEMBL1133583, “Design of cancer-specific antitumor agents based on aziridinylcyclopent[b]indoloquinones” (J Med Chem, 2000)
# Assays:
# Format in all cases: functional
# [1] = system: Breast carcinoma cell; assay: In vitro cytotoxicity against breast cancer cells.; conditions: Homo sapiens
# [2] = system: CNS carcinoma cell; assay: In vitro cytotoxicity against CNS cancer cells; conditions: Homo sapiens
# [3] = system: Colon carcinoma cell; assay: In vitro cytotoxicity against colon cancer cells; conditions: Homo sapiens
# [4] = In vitro cytotoxicity against Leukemia cancer cells.; conditions: Homo sapiens, Cancer cell lines
# [5] = system: Melanoma cell; assay: In vitro cytotoxicity against melanoma cancer cells; conditions: Homo sapiens
# [6] = species: Homo sapiens; assay: In vitro cytotoxicity against non-small-cell lung cancer cells; conditions: Cancer cell lines, read-out: Log LC50 (the source's name) (converted)
# [7] = system: Ovarian carcinoma cell; assay: In vitro cytotoxicity against ovarian cancer cells; conditions: Homo sapiens
# [8] = system: Prostatic carcinoma cell; assay: In vitro cytotoxicity against prostate cancer cells.; conditions: Homo sapiens, read-out: Log LC50 (the source's name) (converted)
# [9] = system: Renal cancer cell line; assay: (§1) In vitro cytotoxicity against renal cancer cells.; conditions: Homo sapiens, read-out: Log LC50 (the source's name) (converted)
# [10] = as §1; conditions: Homo sapiens, Cancer cell lines; read-out: Log LC50 (the source's name) (converted)
Compound,LC50 (concentration killing 50% of cells) [1],LC50 [2],LC50 (50% lethal concentration) [3],LC50 (lethal concentration 50%) [4],LC50 [5],CC50 [6],LC50 [7],CC50 [8],CC50 [9],CC50 [10]
CC(=O)OC1CCc2c1[nH]c1c2C(=O)C(C)=C(N2CC2)C1=O (stereo not drawn),29.5 µM,20 µM,14.1 µM,50.1 µM,10.2 µM,22.4 µM,39.8 µM,23.4 µM,19.1 µM,–
CC(=O)OCc1[nH]c2c(c1C)C(=O)C(C)=C(N1CC1)C2=O,> 100 µM,> 100 µM,> 100 µM,> 100 µM,70.8 µM,79.4 µM,> 100 µM,> 100 µM,–,72.4 µM
CC1=C(N2CC2)C(=O)c2c([nH]c(CO)c2C)C1=O,27.5 µM,> 100 µM,47.9 µM,> 100 µM,4.07 µM,42.7 µM,> 100 µM,16.6 µM,29.5 µM,–
CC1=C(N2CC2)C(=O)c2[nH]c3c(c2C1=O)CCC3O (stereo not drawn),33.9 µM,28.8 µM,35.5 µM,87.1 µM,14.1 µM,60.3 µM,89.1 µM,31.6 µM,–,18.6 µM
COC1CCc2c1[nH]c1c2C(=O)C(C)=C(N2CC2)C1=O (stereo not drawn),46.8 µM,67.6 µM,47.9 µM,87.1 µM,12 µM,63.1 µM,> 100 µM,34.7 µM,–,26.3 µM
CC(=O)OC1CCc2c3c(n(C(C)=O)c21)C(=O)C(N1CC1)=C(C)C3=O (stereo not drawn),31.6 µM,17.8 µM,17 µM,> 100 µM,8.71 µM,38 µM,66.1 µM,19.5 µM,16.6 µM,–
CC(=O)OCc1[nH]c2c(c1C)C(=O)C(N1CC1)=C(C)C2=O,26.9 µM,14.8 µM,8.32 µM,> 100 µM,2.29 µM,33.1 µM,34.7 µM,9.77 µM,28.8 µM,–
CC1=C(N2CC2)C(=O)c2[nH]c3c(c2C1=O)CCC3=O,12.6 µM,7.41 µM,3.63 µM,> 100 µM,1.02 µM,4.27 µM,13.8 µM,15.8 µM,4.57 µM,–
CC1=C(N2CC2)C(=O)c2c([nH]c(C)c2C)C1=O,–,–,–,–,–,51.3 µM,–,> 100 µM,–,> 100 µM
CC1=C(N2CC2)C(=O)c2[nH]c(C)c(C)c2C1=O,> 100 µM,> 100 µM,89.1 µM,> 100 µM,70.8 µM,50.1 µM,> 100 µM,> 100 µM,> 100 µM,–
CC1=C(N2CC2)C(=O)c2[nH]c(CO)c(C)c2C1=O,89.1 µM,89.1 µM,63.1 µM,> 100 µM,39.8 µM,79.4 µM,> 100 µM,63.1 µM,–,58.9 µM
